Results reported in patent EP0419081A2, “Method for protein binding enzyme complementation assays” (MICROGENICS CORPORATION, priority 1989, dated 1991).
Like-named read-outs stand apart in the source and are kept apart here.

Key:
[1] = test system: EA; test: Equilibrium specific activity; format: biochemical; conditions: ED and EA incubated together for 18 hours
[2] = test system: anti-T4 antibody; test: Affinity constant by ED titration, Scatchard plot, T4 conjugates; format: binding; conditions: ED titration against fixed anti-T4 Ab, no secondary antibody
Description: The Ka was determined as follows: To determine the affinity constant of an antibody for an experimental ED conjugate, an ED titration against a fixed antibody is carried out. Antibody binding to the conjugated ED is monitored by inhibition of formation of active enzyme as indicated by a decrease in chromogenic substrate turnover. The resulting data is plotted in a Scatchard format (Bound/Free vs. [Bound]). The slope of the line generated is equal to ∼KA in L/mole.

[3] = test system: EA23
Description: This example illustrates an immunoassay for thyroxine as analyte using H6-thyroxine conjugate as enzyme-donor, EA23 as enzyme-acceptor, anti-thyroxine antibody and a series of concentrations of thyroxine.
Reagents for the assay were prepared as follows: L-thyroxine standard: 2.6 mg L-thyroxine (Sigma Chemical, St. Louis, MO) was dissolved in 200 µl absolute ethanol and 800 µl 0.15M NaHCO₃ added and the mixture stored at 25°C. Two fold dilutions of thyroxine were prepared in ethanol: 0.15M NaHCO₃ (1:4). L-thyroxine antibody: Antisera to thyroxine (T4) was purchased from Western Chemical Research Corp., Denver, CO. Several lots were tested for titer and an equilibrium constant determined in a radio-immunoassay with IgM Sorb (Enzyme Center, Malden, MA). […] EA23 acceptor-enzyme: 6.3X10-⁷M in storage buffer. Substrate: o-nitrophenyl-β-D-galactopyranoside (ONPG) was dissolved in 2.5 X Z buffer to a final concentration 10 mg/ml solution.
The assay was performed in microtiter plates (Dynatech Cat. #001-012-9200 American Scientific Products, Sunnyvale, CA) and read on a Titertak Multiscan microtiter plate reader fitted with a 414 nm filter (Flow Laboratories, Rockville, MO). To each well was added 100 µl of PM2 buffer containing 0.05% Tween 20 (polyoxyethylene sorbitan monolaurate) (Sigma Chemical Co., St. Louis, MO). To each well was added sequentially 2.5 µl H6-thyroxine conjugate, 2.5 µl of anti-thyroxine antibody, 2.5 µl of the thyroxine standards and 40 µl of EA23.

[4] = test system: anti-T4 antibody (T4-pool 393A); test: Immunochemical testing on the Encore, T4 conjugates; format: biochemical
Description: The immunochemical testing was performed on the Encore. […] The ligand concentrations employed are indicated in the legend to the table. The ED and antibody were preincubated on the rotor for 15 min at 37°C. All antibody concentrations were assayed in duplicate. No correction was made for variations of total protein in the assays.

[5] = test system: analyte specific antiserum; test: Immunopurity by precipitation of the enzyme donor conjugate with antibody; format: binding; conditions: % of ED conjugate activity which can be removed by analyte specific antiserum
Description: Immunopurity was determined by precipitation of the enzyme donor conjugate with anti-T4 antibody TgG Sorbheads. The ED is incubated with primary antibody at room temperature for 15 min on a rocker shaker. Secondary antibody is added and incubation continued for 15 min. The suspension is centrifuged and an aliquot of the supernatant is saved for the assay. The above cycle is repeated on the remaining supernatant for a total of five cycles. […] The ED concentration during incubation is 20 nM. Assay concentrations are EA 500 nM; ED, 4 nM; and ONPG, 1mg/ml. Immunopurity is expressed as percent of ED activity precipitable by primary antibody.

[6] = target: T1, FBP (Bos taurus, UniProt P02702); test: Folate dose response; format: biochemical; conditions: for 5′- 9′: rate OD₄₂₀ 5 to 9 min, FBP 1:1000, ED14-folate #34
T1 construct: purchased Scripps
T1 sequence (P02702 20-234): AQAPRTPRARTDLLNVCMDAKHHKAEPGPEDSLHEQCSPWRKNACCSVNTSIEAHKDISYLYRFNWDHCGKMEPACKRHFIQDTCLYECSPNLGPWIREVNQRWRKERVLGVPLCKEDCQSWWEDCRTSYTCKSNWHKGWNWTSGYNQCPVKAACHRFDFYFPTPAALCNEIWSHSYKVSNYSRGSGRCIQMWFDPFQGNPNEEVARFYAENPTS
Description: The following buffer systems and reagents were used and will be abbreviated as stated below: • 1. Sample buffer; 100 mM sodium phosphate, 20 mM sodium azide and 0.2% BSA. • 2. Assay buffer pH 7.0; 10 mM ethylene glycol tetraacetic acid, 2 mM magnesium acetate, 20 mM sodium azide, 150 mM sodium phosphate, 100 mM potassium phosphate, 0.05% Tween 20, 0.05 mM dithiothreitol, adjusted to pH 7.0. • 3. EA; enzyme acceptor • 4. ED; enzyme donor • 5. FBP Scripps; folate binding protein from Scripps 2.25 mg/ml stock • 6. CPRG; chlorophenol red β-D galactopyranoside • 7. ONPG: 2-nitrophenol β-D galactopyranoside
A folate dose response was elicited as follows. The following reagents were prepared; EA at a concentration of 3750 nM in Assay buffer p8 7.0, ED14-folate (fraction #34) at a concentration of 26.66 nM in Assay/ONPG buffer pH 7.0, FBP at a dilution of 1:1000 in sample buffer and folic acid standards at 0, 2.5, 5.0, 10.0 and 20.0 ng/ml in sample buffer. […] Rates were calculated by subtracting the OD₄₂₀ at 5 min from the OD₄₂₀ at 9 min.

Row | % Mod ([6]; folic acid standard 5.0 ng/ml) [%] | Net ([6]; folic acid standard 5.0 ng/ml) | 5′- 9′ ([6]; folic acid standard 5.0 ng/ml) | % Mod ([6]; folic acid standard 10.0 ng/ml) [%] | Net ([6]; folic acid standard 10.0 ng/ml) | 5′- 9′ ([6]; folic acid standard 10.0 ng/ml) | % Mod ([6]; folic acid standard 20.0 ng/ml) [%] | Net ([6]; folic acid standard 20.0 ng/ml) | 5′- 9′ ([6]; folic acid standard 20.0 ng/ml) | Molecule | Specific Activity (u/mg) (% ED4-T4) Equilibrium [1] [%] | Ka (L/mole) x10-9 [2] [L/mole x10-9] | OD₄₁₅ ([3]; Well 2: ED₄-T4 2.5 µl only, no EA) | OD₄₁₅ ([3]; Well 3: ED₄-T4 2.5 µl, EA 40 µl) | OD₄₁₅ ([3]; Well 4: ED₄-T4 2.5 µl, Antibody 2.5 µl, EA 40 µl) | OD₄₁₅ ([3]; Well 5: ED₄-T4 2.5 µl, Antibody 2.5 µl, Thyroxine 6.25 µg/µl, EA 40 µl) | OD₄₁₅ ([3]; Well 6: ED₄-T4 2.5 µl, Antibody 2.5 µl, Thyroxine 12.5 µg/µl, EA 40 µl) | OD₄₁₅ ([3]; Well 7: ED₄-T4 2.5 µl, Antibody 2.5 µl, Thyroxine 25 µg/µl, EA 40 µl) | Immunochemical Testing %I 1/2Sat ([4]; T4-pool 393A at 1:12,000, ED titrated until one-half of Ab binding sites saturated, no secondary antibody) [%] | Immunochemical Testing (0.125 nM Sys [ED]) ([4]; maximum amount of complementation inhibition, ED system concentration 0.125 nM, Ab constant) [%] | Immuno-Purity [5] [%]
1 | – | – | – | – | – | – | – | – | – | m-maleimide-benzoyl-L-Thyroxine-ED₄ conjugate [ED4T4] | 100 | 1.97 | 0.001 | 0.595 | 0.300 | 0.312 | 0.320 | 0.364 | 34 | 47 | 96
2 | 13.4 | 52 | 388.5 | 24.1 | 107 | 443.5 | 40.0 | 2255 | 562 | Nc1nc2ncc(CNc3ccc(C(=O)N[C@@H](CCC(=O)O)C(=O)O)cc3)nc2c(=O)[nH]1 [folic acid] | – | – | – | – | – | – | – | – | – | – | –
